Assay [1] concerns SARS-CoV-2 pseudovirus entry in ACE2 expressing cells. Type of assay: cell-based.
Assay [2] relates to SARS-CoV-2 isolate USA-WA1/2020. The assay can be described thus: microbe, parasite or virus in culture. Type of assay: cell-based. The note with it: Severe acute respiratory syndrome coronavirus 2, A549, read-out: EC50 against SARS-CoV-2 isolate USA-WA1/2020 in A549 overexpressing ACE2.

In brackets after ≈: the same amount, converted by molar mass.

On to `CN1CCCC(n2nc(Cc3ccc(Cl)cc3)c3ccccc3c2=O)CC1` (centres unmarked) [azelastine], for which, in assay [1], the “level of SARS-CoV-2 pseudovirus entry, varying concentrations (FIG. 15A)” value is reported as “significantly lowered the level of SARS-CoV-2 pseudovirus entry” and the “viral infection (GFP positive cells per image field)” value is reported as “substantially reduced viral infection”.

Regarding `O=C(O)COCCN1CCN(C(c2ccccc2)c2ccc(Cl)cc2)CC1` (centres unmarked) [cetirizine], in assay [1], the “level of SARS-CoV-2 pseudovirus entry, varying concentrations (diminazene, cetirizine, labetalol graph)” value is reported as “significantly lowered the level of SARS-CoV-2 pseudovirus entry” and the “viral infection (GFP positive cells per image field)” value is given as “reduced viral infection”.

In the case of `OCCOCCN1CCN(C(c2ccccc2)c2ccc(Cl)cc2)CC1` (centres unmarked) [hydroxyzine], in assay [1], the “level of SARS-CoV-2 pseudovirus entry, varying concentrations (FIG. 15A)” value is “significantly lowered the level of SARS-CoV-2 pseudovirus entry” and the “viral infection (GFP positive cells per image field)” value is recorded as “substantially reduced viral infection”. Moreover, the EC50 in assay [2] was 27.3 µg/mL (≈ 72.9 µM).

For the compound `N=C(N)c1ccc(/N=N/Nc2ccc(C(=N)N)cc2)cc1` [diminazene], in assay [1], the “level of SARS-CoV-2 pseudovirus entry, varying concentrations (diminazene, cetirizine, labetalol graph)” value is given as “significantly lowered the level of SARS-CoV-2 pseudovirus entry” and the “viral infection (GFP positive cells per image field)” value was “reduced viral infection”.

In the case of `CN(C)CCOC(c1ccccc1)c1ccccc1` [diphenhydramine], in assay [1], the “viral infection (GFP positive cells per image field)” value was “substantially reduced viral infection”.

Turning to `CN(C)CCC(c1ccc(Cl)cc1)c1ccccn1` (centres unmarked) [chlorpheniramine], the “viral infection (GFP positive cells per image field)” value in assay [1] is “reduced viral infection”.
